This is an account of results in US20160361330A1 (priority 2014, published 2016).

Assay [1] concerns ebolavirus (EBOV) strain Zaire. Nature of the assay: organism not typed. It is filed as cell-based, Ebola virus. To be noted: read-out: EC50 (nM) Antigen expression (high content imaging) Ebola Hela.
Assay [2] relates to ebolavirus (EBOV) strain Zaire. Kind of assay: organism not typed. The class given is cell-based, Ebola virus. To be noted: read-out: EC50 (nM) Antigen expression (high content imaging) Ebola Macrophage.
In assay [3] the test system is EBOV-GFP (Ebola virus expressing the GFP reporter gene). Kind of assay: microbe, parasite or virus in culture. The class given is cell-based. The settings on record: read-out: EC50 (nM) Reporter Virus EBOV-GFP HMVEC-TERT.
The test system is the same in assay [4]. Nature of the assay: microbe, parasite or virus in culture. It is filed as cell-based. To be noted: Zaire ebolavirus, Huh-7, read-out: EC50 (nM) Reporter Virus EBOV-GFP Huh-7.

Where “and” joins values, the source holds several entries; their conditions need not be identical. Equal entries are not always repeated. Where two headings read alike, the source gives them in different places.

Usually EC50 stands for the midpoint of the concentration-response curve. Take `C[C@H](NP(=O)(OC[C@H]1O[C@@](C#N)(c2ccc3c(N)ncnn23)[C@H](O)[C@@H]1O)Oc1ccccc1)C(=O)OC1CCCCC1` (stereo partly drawn) [Compound 29, (2S)-cyclohexyl 2-(((((2R,3S,4R,5R)-5-(4-aminopyrrolo[2,1-f][1,2,4]triazin-7-yl)-5-cyano-3,4-dihydroxytetrahydrofuran-2-yl)methoxy)(phenoxy)phosphoryl)amino) propanoate]: the EC50 in assay [1] (HeLa) was 275 nM.
With `CCOC(=O)[C@@H](NP(=O)(OC[C@H]1O[C@@](C#N)(c2ccc3c(N)ncnn23)[C@H](O)[C@@H]1O)Oc1ccccc1)C(C)C` (stereo partly drawn) [Compound 22, (2S)-ethyl 2-(((((2R,3S,4R,5R)-5-(4-aminopyrrolo[2,1-f][1,2,4]triazin-7-yl)-5-cyano-3,4-dihydroxytetrahydrofuran-2-yl)methoxy)(phenoxy)phosphoryl)amino)-3-methylbutanoate], the EC50 in assay [1] (HeLa) was found to be 11600 nM.
On to `CCOC(=O)[C@H](Cc1ccccc1)NP(=O)(OC[C@H]1O[C@@](C#N)(c2ccc3c(N)ncnn23)[C@H](O)[C@@H]1O)Oc1ccccc1` (stereo partly drawn) [Compound 21, (2S)-ethyl 2-(((((2R,3S,4R,5R)-5-(4-aminopyrrolo[2,1-f][1,2,4]triazin-7-yl)-5-cyano-3,4-dihydroxytetrahydrofuran-2-yl)methoxy)(phenoxy)phosphoryl)amino)-3-phenylpropanoate], for which the EC50 in assay [2] (Macrophage) was 270 nM; in assay [3] (Zaire ebolavirus), 905 nM; in assay [3], 473 nM.
For the compound `CCC(CC)COC(=O)[C@H](C)N[P@@](=O)(OC[C@H]1O[C@@](C#N)(c2ccc3c(N)ncnn23)[C@H](O)[C@@H]1O)Oc1ccccc1` (single isomer, unassigned) [(R)-Diastereomer of Compound 9], the EC50 in assay [1] (HeLa) came out at 210 nM; in assay [4], 70 nM; in assay [2] (Macrophage) it was 112 nM; in assay [3] (Zaire ebolavirus) it was 62 nM.
For the compound `CC(C)OC(=O)[C@H](Cc1ccccc1)NP(=O)(OC[C@H]1O[C@@](C#N)(c2ccc3c(N)ncnn23)[C@H](O)[C@@H]1O)Oc1ccccc1` (stereo partly drawn) [Compound 25, (2S)-isopropyl 2-(((((2R,3S,4R,5R)-5-(4-aminopyrrolo[2,1-f][1,2,4]triazin-7-yl)-5-cyano-3,4-dihydroxytetrahydrofuran-2-yl)methoxy)(phenoxy)phosphoryl)amino)-3-phenylpropanoate], the EC50 in assay [1] (HeLa) was found to be 6720 nM.
Regarding `CCOC(=O)C(C)(C)NP(=O)(OC[C@H]1O[C@@](C#N)(c2ccc3c(N)ncnn23)[C@H](O)[C@@H]1O)Oc1ccccc1` (stereo partly drawn) [Compound 30, ethyl 2-(((((2R,3S,4R,5R)-5-(4-aminopyrrolo[2,1-f][1,2,4]triazin-7-yl)-5-cyano-3,4-dihydroxytetrahydrofuran-2-yl)methoxy)(phenoxy)phosphoryl)amino)-2-methylpropanoate], the results for the EC50 in assay [1] (HeLa), in assay [2] (Macrophage) and in assay [3] (Zaire ebolavirus) were over 20000 nM, 1230 nM and 11100 nM, respectively.
For the compound `COC(=O)[C@H](C)N[P@](=O)(OC[C@H]1O[C@@](C#N)(c2ccc3c(N)ncnn23)[C@H](O)[C@@H]1O)Oc1ccccc1` [Compound 26, (S)-methyl 2-(((S)-(((2R,3S,4R,5R)-5-(4-aminopyrrolo[2,1-f][1,2,4]triazin-7-yl)-5-cyano-3,4-dihydroxytetrahydrofuran-2-yl)methoxy)(phenoxy)phosphoryl)amino)propanoate], the EC50 in assay [1] (HeLa) amounted to 970 nM; in assay [1] it was 1100 nM; in assay [2] (Macrophage), 1180 nM; in assay [2], 1290 nM; in assay [3] (Zaire ebolavirus), 283 nM.
On to `CC(C)OC(=O)[C@H](C)NP(=O)(OC[C@H]1O[C@@](C#N)(c2ccc3c(N)ncnn23)[C@H](O)[C@@H]1O)Oc1ccccc1` (stereo in doubt) [Compound 23, (S)-isopropyl 2-(((R)-(((2R,3S,4R,5R)-5-(4-aminopyrrolo[2,1-f][1,2,4]triazin-7-yl)-5-cyano-3,4-dihydroxytetrahydrofuran-2-yl)methoxy)(phenoxy)phosphoryl)amino)propanoate], for which the EC50 in assay [1] (HeLa) was 1650 nM; in assay [1], 1840 nM; in assay [2] (Macrophage), 243 nM; in assay [2], 350 nM and 297 nM; in assay [3] (Zaire ebolavirus) it was 458 nM.
In the case of `C[C@H](NP(=O)(OC[C@H]1O[C@@](C#N)(c2ccc3c(N)ncnn23)[C@H](O)[C@@H]1O)Oc1ccccc1)C(=O)OC1CCCC1` (stereo partly drawn) [Compound 28, (2S)-cyclopentyl 2-(((((2R,3S,4R,5R)-5-(4-aminopyrrolo[2,1-f][1,2,4]triazin-7-yl)-5-cyano-3,4-dihydroxytetrahydrofuran-2-yl)methoxy)(phenoxy)phosphoryl)amino) propanoate], the EC50 was 975 nM in assay [1] (HeLa), 682 nM in assay [1], 120 nM in assay [2] (Macrophage) and 102 nM in assay [3] (Zaire ebolavirus).
Take `CC(C)(C)C(=O)SCCOP(=O)(OCCSC(=O)C(C)(C)C)OC[C@H]1O[C@@](C#N)(c2ccc3c(N)ncnn23)[C@H](O)[C@@H]1O` [Compound 15]: the EC50 came to 520 nM in assay [1] (HeLa), 271 nM in assay [4], 501 nM in assay [2] (Macrophage) and 630 nM in assay [3] (Zaire ebolavirus).
Turning to `CCC(CC)COC(=O)[C@H](C)N[P@](=O)(OC[C@H]1O[C@@](C#N)(c2ccc3c(N)ncnn23)[C@H](O)[C@@H]1O)Oc1ccccc1` (single isomer, unassigned) [(S)-Diastereomer of Compound 9 (Compound 32)], the EC50 in assay [1] (HeLa) worked out at 100 nM; in assay [4] it was 81 nM; in assay [2] (Macrophage), 87 nM; in assay [3] (Zaire ebolavirus), 40 nM.
`C[C@H](N[P@](=O)(OC[C@H]1O[C@@](C#N)(c2ccc3c(N)ncnn23)[C@H](O)[C@@H]1O)Oc1ccccc1)C(=O)OCC(C)(C)C` [Compound 27, (S)-neopentyl 2-(((S)-(((2R,3S,4R,5R)-5-(4-aminopyrrolo[2,1-f][1,2,4]triazin-7-yl)-5-cyano-3,4-dihydroxytetrahydrofuran-2-yl)methoxy)(phenoxy)phosphoryl)amino) propanoate]: the figures for the EC50 in assay [1] (HeLa) and in assay [3] (Zaire ebolavirus) were 182 nM and 82 nM, respectively.
As for `C[C@H](NP(=O)(OC[C@H]1O[C@@](C#N)(c2ccc3c(N)ncnn23)[C@H](O)[C@@H]1O)Oc1ccccc1)C(=O)OC1CCC1` (stereo partly drawn) [Compound 24, (2S)-cyclobutyl 2-(((((2R,3S,4R,5R)-5-(4-aminopyrrolo[2,1-f][1,2,4]triazin-7-yl)-5-cyano-3,4-dihydroxytetrahydrofuran-2-yl)methoxy)(phenoxy)phosphoryl)amino)propanoate], the EC50 in assay [1] (HeLa) worked out at 785 nM.
On the same count and under the same terms, next, `CCOC(=O)[C@H](C)NP(=O)(OC[C@H]1O[C@@](C#N)(c2ccc3c(N)ncnn23)[C@H](O)[C@@H]1O)Oc1ccccc1` (stereo partly drawn) [Compound 10, (2S)-ethyl 2-(((((2R,3S,4R,5R)-5-(4-aminopyrrolo[2,1-f][1,2,4]triazin-7-yl)-5-cyano-3,4-dihydroxytetrahydrofuran-2-yl)methoxy)(phenoxy)phosphoryl)amino)propanoate]: 3200 nM.
`CC(C)OC(=O)C(C)(C)NP(=O)(OC[C@H]1O[C@@](C#N)(c2ccc3c(N)ncnn23)[C@H](O)[C@@H]1O)Oc1ccccc1` (stereo partly drawn) [Compound 31, Isopropyl 2-(((((2R,3S,4R,5R)-5-(4-aminopyrrolo[2,1-f][1,2,4]triazin-7-yl)-5-cyano-3,4-dihydroxytetrahydrofuran-2-yl)methoxy)(phenoxy)phosphoryl)amino)-2-methylpropanoate]: the EC50 is over 20000 nM in assay [1] (HeLa), over 10000 nM in assay [1], 1230 nM in assay [2] (Macrophage) and 11100 nM in assay [3] (Zaire ebolavirus).
